Molecular target: T1, GLUT1 (Homo sapiens, UniProt P11166)
T1 sequence (P11166 1-492): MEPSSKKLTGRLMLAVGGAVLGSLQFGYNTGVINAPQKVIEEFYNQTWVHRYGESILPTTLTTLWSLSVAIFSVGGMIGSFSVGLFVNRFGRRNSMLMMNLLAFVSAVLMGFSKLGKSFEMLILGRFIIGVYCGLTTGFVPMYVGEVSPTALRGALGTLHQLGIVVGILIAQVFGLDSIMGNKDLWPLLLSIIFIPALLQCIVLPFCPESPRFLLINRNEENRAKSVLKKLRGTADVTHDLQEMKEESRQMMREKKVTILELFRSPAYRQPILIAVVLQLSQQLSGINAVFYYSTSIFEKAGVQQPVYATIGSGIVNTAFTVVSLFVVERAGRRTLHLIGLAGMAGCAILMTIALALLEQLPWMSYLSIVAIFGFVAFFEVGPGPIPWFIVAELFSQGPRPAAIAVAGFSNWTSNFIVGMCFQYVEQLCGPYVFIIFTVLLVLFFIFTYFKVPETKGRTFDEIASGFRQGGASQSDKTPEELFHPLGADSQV
Assay: Indirect measurement of GLUT1 activity by quantification of intracellular ATP levels (glucose induced ATP increase)
Format: cell-based
Design: endogenous in cells; host or cells: DLD1 or CHO-K1
Conditions: read-out: IC50 regarding glucose induced ATP increase (GLUT1 inhibition)
Method in brief: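 Intracellular ATP was measured by CellTiter-Glo luminescence as an indirect readout of transport: glucose-driven for GLUT1, fructose-driven for GLUT2. DLD1 or CHO-K1 cells were used alongside an oxidative phosphorylation inhibitor. Beforehand, cells were held overnight in glucose-free 1% FCS medium to deplete ATP.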

Row | SMILES | IC50
1 | COc1cc(C(=O)Nc2c(C)nn(Cc3ccccc3)c2C)c2ccccc2n1 [Example 65, N-(1-benzyl-3,5-dimethyl-1H-pyrazol-4-yl)-2-methoxyquinoline-4-carboxamide] | 133 nM
2 | Cc1nn(Cc2ccccn2)c(C)c1NC(=O)c1cc(C(F)(F)F)nc2c(Cl)cc(Cl)cc12 [Example 66, 6,8-dichloro-N-[3,5-dimethyl-1-(pyridin-2-ylmethyl)-1H-pyrazol-4-yl]-2-(trifluoromethyl)quinoline-4-carboxamide] | 135 nM
3 | COc1cccc(Cn2nc(C)c(NC(=O)c3cc(C(F)(F)F)nc4c(Cl)cc(Cl)cc34)c2C)c1 [Example 67, 6,8-dichloro-N-[1-(3-methoxybenzyl)-3,5-dimethyl-1H-pyrazol-4-yl]-2-(trifluoromethyl)quinoline-4-carboxamide] | 146 nM
4 | Cc1nn(Cc2ccccc2C#N)c(C)c1NC(=O)c1cc(C(F)(F)F)nc2c(Cl)cc(Cl)cc12 [Example 68, 6,8-dichloro-N-[1-(2-cyanobenzyl)-3,5-dimethyl-1H-pyrazol-4-yl]-2-(trifluoromethyl)quinoline-4-carboxamide] | 148 nM
5 | CCc1cc(C(=O)Nc2c(C)nn(Cc3ccc(F)cc3)c2C)c2ccccc2n1 [Example 69, 2-ethyl-N-[1-(4-fluorobenzyl)-3,5-dimethyl-1H-pyrazol-4-yl]quinoline-4-carboxamide] | 164 nM
6 | Cc1nn(Cc2ccccn2)c(C)c1NC(=O)c1cc(C(F)(F)F)nc2ccc(Br)cc12 [Example 70, 6-bromo-N-[3,5-dimethyl-1-(pyridin-2-ylmethyl)-1H-pyrazol-4-yl]-2-(trifluoromethyl)quinoline-4-carboxamide] | 173 nM
7 | Cc1nn(Cc2cccc(C#N)c2)c(C)c1NC(=O)c1cc(C(F)(F)F)nc2ccc(Br)cc12 [Example 71, 6-bromo-N-[1-(3-cyanobenzyl)-3,5-dimethyl-1H-pyrazol-4-yl]-2-(trifluoromethyl)quinoline-4-carboxamide] | 175 nM
8 | Cc1nn(Cc2cccc(F)c2)c(C)c1NC(=O)c1cc(C(F)(F)F)nc2ccc(Br)cc12 [Example 72, 6-bromo-N-[1-(3-fluorobenzyl)-3,5-dimethyl-1H-pyrazol-4-yl]-2-(trifluoromethyl)quinoline-4-carboxamide] | 177 nM
9 | Cc1ccc2nc(C)cc(C(=O)Nc3c(C(F)(F)F)nn(Cc4ccc(F)cc4)c3C)c2c1 [Example 73, N-[1-(4-fluorobenzyl)-5-methyl-3-(trifluoromethyl)-1H-pyrazol-4-yl]-2,6-dimethylquinoline-4-carboxamide] | 177 nM
10 | Cc1nn(Cc2ccccc2F)c(C)c1NC(=O)c1cc(C(F)(F)F)nc2ccc(Br)cc12 [Example 74, 6-bromo-N-[1-(2-fluorobenzyl)-3,5-dimethyl-1H-pyrazol-4-yl]-2-(trifluoromethyl)quinoline-4-carboxamide] | 181 nM
11 | COc1ccc2nc(O)cc(C(=O)Nc3c(C)nn(Cc4ccc(F)cc4)c3C)c2c1 [Example 75, N-[1-(4-fluorobenzyl)-3,5-dimethyl-1H-pyrazol-4-yl]-2-hydroxy-6-methoxyquinoline-4-carboxamide] | 182 nM
12 | COc1cc(C(=O)Nc2c(C)nn(Cc3cccc(C)c3)c2C)c2ccccc2n1 [Example 76, N-[3,5-dimethyl-1-(3-methylbenzyl)-1H-pyrazol-4-yl]-2-methoxyquinoline-4-carboxamide] | 188 nM
13 | COc1cc(C(=O)Nc2c(C)nn(Cc3ccccc3F)c2C)c2ccccc2n1 [Example 77, N-[1-(2-fluorobenzyl)-3,5-dimethyl-1H-pyrazol-4-yl]-2-methoxyquinoline-4-carboxamide] | 204 nM
14 | Cc1nn(Cc2ccc(F)cc2)c(C)c1NC(=O)c1cc(C#N)nc2ccccc12 [Example 78, 2-cyano-N-[1-(4-fluorobenzyl)-3,5-dimethyl-1H-pyrazol-4-yl]quinoline-4-carboxamide] | 223 nM
15 | Cc1nn(Cc2ccc(F)cc2)c(C)c1NC(=O)c1cc(C2CC2)nc2ccc(C(F)(F)F)cc12 [Example 79, 2-cyclopropyl-N-[1-(4-fluorobenzyl)-3,5-dimethyl-1H-pyrazol-4-yl]-6-(trifluoromethyl)quinoline-4-carboxamide] | 225 nM
16 | COc1cc(C(=O)Nc2c(C)nn(Cc3ccccc3C#N)c2C)c2ccccc2n1 [Example 80, N-[1-(2-cyanobenzyl)-3,5-dimethyl-1H-pyrazol-4-yl]-2-methoxyquinoline-4-carboxamide] | 229 nM
17 | COc1cccc(Cn2nc(C)c(NC(=O)c3cc(OC)nc4ccccc34)c2C)c1 [Example 81, 2-methoxy-N-[1-(3-methoxybenzyl)-3,5-dimethyl-1H-pyrazol-4-yl]quinoline-4-carboxamide] | 229 nM

Row | SMILES | IC50
18 | Cc1cccnc1Cn1nc(C)c(NC(=O)c2cc(C(F)(F)F)nc3c(Cl)cc(Cl)cc23)c1C [Example 82, 6,8-dichloro-N-{3,5-dimethyl-1-[(3-methylpyridin-2-yl)methyl]-1H-pyrazol-4-yl}-2-(trifluoromethyl)quinoline-4-carboxamide] | 250 nM
19 | Cc1nn(Cc2ccccc2OC(F)(F)F)c(C)c1NC(=O)c1cc(C(F)(F)F)nc2ccc(Br)cc12 [Example 83, 6-bromo-N-{3,5-dimethyl-1-[2-(trifluoromethoxy)benzyl]-1H-pyrazol-4-yl}-2-(trifluoromethyl)quinoline-4-carboxamide] | 250 nM
20 | Cc1ccc2nc(C)cc(C(=O)Nc3c(C)nn(Cc4c(F)cccc4F)c3C)c2c1 [Example 84, N-[1-(2,6-difluorobenzyl)-3,5-dimethyl-1H-pyrazol-4-yl]-2,6-dimethylquinoline-4-carboxamide] | 255 nM
21 | Cc1nn(Cc2ccc(F)cc2)c(C)c1NC(=O)c1cc(C(F)(F)F)nc2c(F)cccc12 [Example 85, 8-fluoro-N-[1-(4-fluorobenzyl)-3,5-dimethyl-1H-pyrazol-4-yl]-2-(trifluoromethyl)quinoline-4-carboxamide] | 257 nM
22 | Cc1cc(C(=O)Nc2c(C)nn(Cc3ccc(F)cc3)c2C)c2cccc(C)c2n1 [Example 86, N-[1-(4-fluorobenzyl)-3,5-dimethyl-1H-pyrazol-4-yl]-2,8-dimethylquinoline-4-carboxamide] | 257 nM
23 | COc1cc(C(=O)Nc2c(C)nn(Cc3cccc(F)c3)c2C)c2ccccc2n1 [Example 87, N-[1-(3-fluorobenzyl)-3,5-dimethyl-1H-pyrazol-4-yl]-2-methoxyquinoline-4-carboxamide] | 267 nM
24 | Cc1nn(Cc2ccc(F)cc2)c(C)c1NC(=O)c1cc(C(F)(F)F)nc2cc(Br)ccc12 [Example 88, 7-bromo-N-[1-(4-fluorobenzyl)-3,5-dimethyl-1H-pyrazol-4-yl]-2-(trifluoromethyl)quinoline-4-carboxamide] | 281 nM
25 | Cc1ccccc1Cn1nc(C)c(NC(=O)c2cc(C(F)(F)F)nc3c(Cl)cc(Cl)cc23)c1C [Example 89, 6,8-dichloro-N-[3,5-dimethyl-1-(2-methylbenzyl)-1H-pyrazol-4-yl]-2-(trifluoromethyl)quinoline-4-carboxamide] | 281 nM
26 | Cc1cc(C(=O)Nc2c(C)nn(Cc3ccc(F)cc3)c2C)c2cc(F)ccc2n1 [Example 90, 6-fluoro-N-[1-(4-fluorobenzyl)-3,5-dimethyl-1H-pyrazol-4-yl]-2-methylquinoline-4-carboxamide] | 291 nM
27 | Cc1nn(Cc2cccc(C#N)c2)c(C)c1NC(=O)c1cc(C(F)(F)F)nc2c(Cl)cc(Cl)cc12 [Example 91, 6,8-dichloro-N-[1-(3-cyanobenzyl)-3,5-dimethyl-1H-pyrazol-4-yl]-2-(trifluoromethyl)quinoline-4-carboxamide] | 292 nM
28 | Cc1ccc2nc(C)cc(C(=O)Nc3c(C)nn(Cc4ccccc4)c3C)c2c1 [Example 92, N-(1-benzyl-3,5-dimethyl-1H-pyrazol-4-yl)-2,6-dimethylquinoline-4-carboxamide] | 292 nM
29 | Cc1nn(Cc2cccc(OC(F)(F)F)c2)c(C)c1NC(=O)c1cc(C(F)(F)F)nc2c(Cl)cc(Cl)cc12 [Example 93, 6,8-dichloro-N-{3,5-dimethyl-1-[3-(trifluoromethoxy)benzyl]-1H-pyrazol-4-yl}-2-(trifluoromethyl)quinoline-4-carboxamide] | 292 nM
30 | Cc1nn(Cc2ccccc2F)c(C)c1NC(=O)c1cc(C(F)(F)F)nc2c(Cl)cc(Cl)cc12 [Example 94, 6,8-dichloro-N-[1-(2-fluorobenzyl)-3,5-dimethyl-1H-pyrazol-4-yl]-2-(trifluoromethyl)quinoline-4-carboxamide] | 304 nM
31 | COc1c(C)nc2ccccc2c1C(=O)Nc1c(C)nn(Cc2ccc(F)cc2)c1C [Example 95, N-[1-(4-fluorobenzyl)-3,5-dimethyl-1H-pyrazol-4-yl]-3-methoxy-2-methylquinoline-4-carboxamide] | 309 nM
32 | Cc1ccc2nc(C)cc(C(=O)Nc3c(C)nn(Cc4ccc(F)cc4F)c3C)c2c1 [Example 96, N-[1-(2,4-difluorobenzyl)-3,5-dimethyl-1H-pyrazol-4-yl]-2,6-dimethylquinoline-4-carboxamide] | 344 nM
33 | COc1cccc(Cn2nc(C)c(NC(=O)c3cc(C(F)(F)F)nc4ccc(Br)cc34)c2C)c1 [Example 97, 6-bromo-N-[1-(3-methoxybenzyl)-3,5-dimethyl-1H-pyrazol-4-yl]-2-(trifluoromethyl)quinoline-4-carboxamide] | 354 nM
